The subject of series [1] is neuropathic pain (mechanical allodynia) in SCI, LSS and SNI animal models. The experiment in a line: Mechanical allodynia (von Frey, 50% threshold) in SCI, LSS and SNI neuropathic pain models. It is filed as in vivo, Sprague-Dawley rats. The settings on record: i.p. 5 mg/kg; at 1 hour after administration. As to the method:
To be used as a central nerve injury animal model, a traumatic spinal cord injury (SCI) model was prepared (FIG. 1A). Specifically, 230 to 250 g of male adult Sprague-Dawley rats were anesthetized by intraperitoneal injection of chloral hydrate (500 mg/kg), and then the back and neck regions were shaved, and the spinal cord under the back and neck regions was exposed without damaging the dura mater, and a laminectomy was performed at T9 to T10 levels. To stabilize the spine, the spinous processes of T8 and T11 were fixed, and the spine was damaged by free-falling a 10 g weight from a height of 25 mm using an NYU impactor onto the back surface of the exposed spinal cord and then the rats were left in a temperature and humidity-controlled chamber overnight while covering the muscles and skin. After surgery, the rats were subcutaneously injected with a supplement solution (5 ml, lactated ringer) and injected with antibiotics (gentamicin, 5 mg/kg, intramuscular injection) once daily for 5 days. The body weight, remaining food, and the weight of water were confirmed and recorded for all animals, and the bladder was emptied twice daily by passive bladder massage until reflex micturition was established. At this time, a Sham group was a group that was subjected to only laminectomy without damage.
To be used as a peripheral nerve injury animal model, a lumbar spinal stenosis (LSS) model was prepared (FIG. 1B). Specifically, 260 to 280 g of adult male Sprague-Dawley rats were anesthetized with intraperitoneal injection of chloral hydrate (500 mg/kg), the back region was shaved, and then the spinal plate was exposed at L4 to S2 levels. After removing the ligamentous section between L4 and L5, a trapezoidal silicone block (1.00 mm long×1.3 to 1.2 mm wide×1.0 mm high) was inserted into the epidural space below the L5 and L6 spinal plates without damaging the dural sac. At this time, a Sham group was a group that was subjected to only posterior […] on the animal without inserting a silicone block.
To be used as a peripheral nerve injury animal model, a sciatic nerve injury (SNI) model was prepared (FIG. 1C). Specifically, 200 to 220 g of male adult Sprague-Dawley rats were anesthetized by intraperitoneal injection of chloral hydrate (500 mg/kg), and then three terminal branches (tibial, common peroneal, and sural nerves) of the right sciatic nerve were approached, and the tibia nerve and the peroneal nerve were tightly ligated with 4-0 silk, and neurectomy was performed at a distal 3 mm position of the ligation site. At this time, a Sham group was a group that exposed only the sciatic nerve without damage.
In order to confirm a neuropathic pain inhibitory effect of YJ102 (Chemical Formula 1), a compound of the present disclosure, in the three nerve injury animal models prepared in Example 1 above, rats having pain on week 3 (SNI model) or week 4 (SCI model and LSS model) after surgery were selected and administered orally (p.o.) at 10 mg/kg or 20 mg/kg of YJ102 dissolved in a solution of DMSO, methyl pyrrolidinone, and water (1:1.5:1), or intraperitoneally injected (i.p. injection) at 1, 2, or 5 mg/kg of YJ102. In a positive control group, gabapentin or pregabalin dissolved in saline was intraperitoneally injected at a concentration of 5 mg/kg, and in a Vehicle group, the same amount of a solution of DMSO, methyl pyrrolidinone, and water was administered. Thereafter, in order to measure mechanical allodynia, the rats were located at the bottom of a transparent plastic box (10 cm×10 cm) on top of a wire mesh (3 mm×3 mm) and subjected to an adaptation period for approximately 20 minutes. Von-Frey filaments were applied to the soles of both paws and used with stiff nylon von-Frey monofilament series ([…], Stoelting, WoodDale, IL, USA; equivalent in grams to 0.4, 0.6, 1.0, 2.0, 4.0, 6.0, 8.0 and 15.0) with logarithmic increases in tactile (mechanical) sensitivity. […]

Series [2] deals with sedation. The experiment in a line: Sedation as side effect of the drug. It counts as in vivo, Sprague-Dawley rats.

We go through two compounds from US20260335293A1, “USE OF NOVEL COMPOUND FOR TREATING INTRACTABLE DISEASES” (YJ CERAPEUTICS INC., priority 2023, published 2026).

Regarding `NCC1(CC(=O)O)CCCCC1` [gabapentin, reference compound], the analgesic effect result in series [1] was “significant analgesic effect”. Also, the sedation entry in series [2] (50 mg/kg) is “sedation as a side effect of the drug was observed”.

With `CC(C)C[C@H](CN)CC(=O)O` [pregabalin, reference compound], in series [1], the analgesic effect result was “significant analgesic effect”. The sedation result in series [2] (20 mg/kg) is “sedation as a side effect of the drug was observed”.
